# Laboratory results as given in patent publication US20080064665A1, “Combination approaches to cancer treatment” (priority 2006, published 2008).
# “And” between values parts separate entries of the source, which are not always exact repeats. Identical values can stand only once.
# Legend:
# [1] = system: H460 human lung cancer xenografts; assay: Growth delay and survival of H460 xenografts, PR-104, docetaxel and schedules thereof; type: in vivo, CD-1 nude mice
# Description: Specific pathogen-free homozygous nu/nu (CD-1) nu/nu [NIH-III] (Charles River Laboratories, Wilmington, Mass.) were provided by the Animal Resources Unit (University of Auckland) at 7 to 9 weeks of age. Mice were housed in groups of 4-7 in a temperature-controlled room (22±2° C.) with a 12-hour light/dark cycle and were fed ad libitum water and a standard rodent diet (Harlan Teklad diet 2018i). All animals were uniquely identifiable by ear tag number. All animal protocols were approved by the Animal Ethics Committee of the University of Auckland (AEC approval C337).
# A single cell suspension was prepared by trypsinisation (1× Trypsin/EDTA) from spinner culture, counted, and suspended in ∝MEM to give required cell concentration, as listed below. Mice were inoculated (100 μL) at a single subcutaneous site (right flank) using a 1 ml syringe with a 26 gauge needle.
# Seven days post-inoculation, tumors were measured three times per week until they reached the treatment size (mean diameter 5.8-8.2 mm; average 7.0 mm). Mean tumor diameter was averaged from the longest diameter (length) multiplied by the perpendicular measurement (width). Tumor diameters were estimated when mean diameter was below 5 mm, and measured with electronic callipers when ≧5 mm.
# Tumor volume was calculated using the formula:
# where L=length and w=width in mm of the carcinoma.
# (§1) Excess compound was discarded.
# Tumor bearing mice were assigned randomly to treatment groups when tumor diameter reached treatment size. Animals were rejected if xenografts show evidence of: (i) attachment to underlying muscle (due to risk of local invasion), (ii) signs of ulceration, or (iii) indolent tumor growth. Drug administration begins on the day of assignment. In general, 0.7-0.8 of the inoculated population is assigned to the experiment. Drug administration was undertaken as outlined above.
# During and after treatment, tumor size and body weights were measured regularly. Animals were culled if (i) the average diameter of the tumor exceeds 15 mm (survival end-point), (ii) body weight loss exceeds 15% of pre-treatment value, (iii) there is evidence of prolonged or excessive morbidity, or (iv) tumor ulceration occurred. Each experiment was terminated at day 120 after treatment initiation.
# Kaplan-Meier plots were constructed and median survival was calculated (TTE50). The statistical significance of any differences in overall survival between treatment groups and control was analysed by Log Rank P statistical test. The log-rank test was calculated using XLStat Life (Kovach Computing Services Ltd). The statistic significance in overall survival between each treatment group and control was determined by testing the null hypothesis that the survival curves are identical in the two populations.
# The time for individual tumors to increase in volume by 4 fold relative to treatment day-1 (relative tumor volume×4−RTV^4) was recorded. The median RTV^4 is calculated for each group and the difference in RTV^4 between control and treatment groups is described as the Tumor Growth Delay (TGD) in days. RTV^4 values notmalise for any bias in tumor treatment volume on day-1. The RTV^4 of each treatment group is tested for statistical difference from control group by unpaired t-test and Mann Whitney U test (means and medians, respectively).
# In circumstances where long-term controls (LTCs) occur, an RTV^4 value equal to the total duration of the experiment is assigned for the purposes of statistical analysis (usually 120 days). Where one or more LTC is present the median RTV^4 of each treatment group is tested for statistical difference from control group by Mann Whitney U test only. The statistical analysis was conducted at a p level of 0.05 (two-tailed). SigmaStat v3.10 was used for the statistical analysis of RTV^4 values. SigmaPlot v9 was used for all graph plots.
# Weight loss nadirs (time independent maxima) were recorded for each treatment group.
# [2] = system: SiHa human cervical cancer xenograft; assay: Growth delay and survival of SiHa xenograft, PR-104 and docetaxel; type: in vivo, Rag-1^null mice
# From the text: Analysis: End-points will be expressed as TTE50, Median RTV^4 and plotted in Kaplan-Meier Plots and analysed by Log Rank P statistical test. Weight loss nadir will be compared between schedules.
# [3] = system: 22RV1 androgen-resistant human prostate cancer xenograft; assay: Growth delay and survival of 22RV1 xenograft, PR-104 and docetaxel; type: in vivo, CD-1 nude mice
# Description: (§2) End-point: After treatment, tumor size and body weights were measured regularly and mice were culled either when the average diameter of the tumor reached 15 mm (end-point), the tumor ulcerated or when the body weight change reached −15%. Experiment was ended and all remaining mice culled 120 days after treatment.
# (§3) Analysis: End-points will be expressed as TTE50, Median RTV^4 and plotted in Kaplan-Meier Plots and analysed by Log Rank P statistical test.
# [4] = system: A2780 human ovarian cancer xenografts; assay: Growth delay and survival of A2780 xenografts, PR-104 and docetaxel; type: in vivo, CD-1 nude mice
# Description: as §2, §3
# [5] = system: SiHa cervical cancer xenografts; assay: Excision assay of SiHa xenografts (clonogenic log cell kill); type: in vivo, CD-1 Fox^nu mice; conditions: SN 28343 91.2 mg/kg, SN 29303 375 mg/kg; for cell kill versus controls in excision assay (in words): SiHa human cervical tumor xenograft, docetaxel 65 mg/kg i.p.; for Log Cell Kill versus controls (Mean ± SEM): SiHa tumors excised 18 hours after treatment, docetaxel 65 mg/kg, i.p.
# Description: As for Part 1 except for except where noted below.
# as §1
# Date, body weights (used to adjust injection volume), tumor diameter, unique identifier (tail markings), body weight, and volume to be injected were recorded. Animals were dosed with the test articles i.p. following a defined treatment schedule:
# 18 hours after treatment the mice were culled by cervical dislocation and tumors removed by dissection, in a sterile laminar flow hood. Whole tumor weights were recorded. Tumors were minced using scissors or scalpels until a fine minceate was obtained, and up to 500 mg of minceate was transferred into a pre-tiered Falcon®14 ml test tube containing a sterile magnetic spin bar and re-weighed.
# Samples were then incubated in 37° C. water bath for 30 min over a magnetic stirrer.
# After incubation any undissociated material was allowed to settle for 1 minute. […] Pellets were re-suspended in 10 ml of medium. Cells/ml was determined using an electronic particle counter (Beckman Coulter Electronics, Z2 model). Samples were then diluted to 1×10^5cells/ml and 6-fold serial dilutions made down to 4.6×10^2cells/ml.
# 1 ml of each sample was plated in triplicate for each dilution into appropriately labelled Falcon® P-60 tissue culture dishes containing 4 ml of αMEM+10% FCS+PS.
# Where possible, all plates were counted; those colonies counted=larger than 50 cells, confirmed with the light microscope. TMTC was recorded for those plates where there were too many colonies to count.
# The criteria for selecting the best dilution to use for calculating plating efficiency (PE):
# Higher dilution count>100 colonies (average); lower dilution 10-100 colonies, use PE from the dilution with fewer colonies.
# Higher dilution count >100; lower dilution count <20, use average data from both.
# Higher dilution count <100; lower dilution count <20, use PE from the dilution with more colonies.
# Higher dilution count <100; lower dilution count >20, use average data from both. Note: For the 10^5 dilution, take as the “lower limit” colony count a total count of 30, (sum of all replicates).
# [6] = H460 xenograft, PR-104 652 mg/kg, docetaxel 73 mg/kg, q2w×2
# [7] = Rag-1 mice, PR-104 652 mg/kg, docetaxel 73 mg/kg, q2w×2
# [8] = 22RV1 xenograft, PR-104 652 mg/kg, docetaxel 73 mg/kg, q2w×2
# [9] = A2780 xenograft, PR-104 652 mg/kg, docetaxel 73 mg/kg, q2w×2
structure (smiles),measurement,setting,value
"CS(=O)(=O)OCCN(CCBr)c1c(C(=O)NCCOP(=O)(O)O)cc([N+](=O)[O-])cc1[N+](=O)[O-] [PR-104, 2-[(2-bromoethyl)-2,4-dinitro-6-[[[2-(phosphonooxy)ethyl]amino]-carbonyl]anilino]ethyl methane sulfonate]",Weight Loss Nadir (%),"[1]; H460 xenograft, CD-1 nude mice, mean body weight loss nadir, PR-104 652 mg/kg, docetaxel 73 mg/kg, i.p., q2w×2",−4.9 ± 1.0%
same,Unscheduled deaths,"[1]; H460 xenograft, female CD-1 nude mice, total dose PR-104 652 mg/kg, docetaxel 73 mg/kg, i.p., q2w×2",0
same,"LTC (long term control, failed to reach end-point within duration of experiment)","[1]; H460 xenograft, 120 day experiment, PR-104 652 mg/kg, docetaxel 73 mg/kg, q2w×2",0
same,Median RTV^4 (median time for tumor volume to increase 4-fold),[1]; [6],23 days
same,TGD (tumor growth delay; relative gain in median RTV^4 versus control),[1]; [6],187.5%
same,TTE50 (median time for tumor end-point to occur from day of treatment),"[1]; H460 xenograft, end-point >15 mm mean diameter, PR-104 652 mg/kg, docetaxel 73 mg/kg, q2w×2",29 days
same,Gain TTE50 (improvement in median survival),"[1]; H460 xenograft, versus control (11 days), PR-104 652 mg/kg, docetaxel 73 mg/kg, q2w×2",18 days
same,activity against H460 xenograft (in words),[1]; tumor growth delay and survival end-points,significant single agent activity
same,activity against SiHa xenograft (in words),[2]; Rag-1 mice,modestly active
same,LTC (long term control),"[2]; Rag-1 mice, 120 day experiment",0
same,Weight Loss Nadir (%),"[2]; Rag-1 mice, PR-104 652 mg/kg, docetaxel 73 mg/kg, i.p., q2w×2",−2.2±1.2%
same,Median RTV^4,[2]; [7],16 days
same,TGD (relative gain in median RTV^4 versus control),[2]; [7],33.3%
same,TTE50 (median time for tumor end-point to occur),[2]; [7],25 days
same,Day of death,"[2]; Rag-1 mice, day of unscheduled death",14^B
same,improvement in tumor growth delay,"[2]; Rag-1 mice, versus control",4 days
same,Gain TTE50 (improvement in median survival),"[2]; Rag-1 mice, versus control (17 days)",8 days
same,Unscheduled deaths,"[2]; female Rag-1 mice, total dose PR-104 652 mg/kg, docetaxel 73 mg/kg, i.p., q2w×2",1
same,activity against 22RV1 xenograft (in words),[3]; 22RV1 prostate xenograft model,modest single-agent antitumor activity
same,Weight Loss Nadir (%),"[3]; 22RV1 xenograft, CD-1 nude mice, PR-104 652 mg/kg, docetaxel 73 mg/kg, i.p., q2w×2",−2.1±0.5%
same,LTC (long term control),"[3]; 22RV1 xenograft, 120 day experiment",0
same,Median RTV^4,[3]; [8],23 days
same,TGD (relative gain in median RTV^4 versus control; TGI in text),[3]; [8],156%
same,TTE50,[3]; [8],26.5 days
same,median tumor growth delay,"[3]; 22RV1 xenograft, versus control",14 days
same,Gain TTE50 (improvement in median survival),"[3]; 22RV1 xenograft, versus control (9.5 days)",17 days
same,Weight Loss Nadir (%),"[4]; A2780 xenograft, CD-1 nude mice, PR-104 652 mg/kg, docetaxel 73 mg/kg, i.p., q2w×2",−6.1±1.2%
same,LTC (long term control),"[4]; A2780 xenograft, 120 day experiment",0
same,Median RTV^4,[4]; [9],8 days
same,TGD (relative gain in median RTV^4 versus control),[4]; [9],78% and 77.8%
same,TTE50,[4]; [9],10 days
same,improvement in median tumor growth delay,"[4]; A2780 xenograft, versus control",3.5 days
same,Gain TTE50 (improvement in median survival),"[4]; A2780 xenograft, versus control (6 days)",4 days
same,activity against A2780 xenograft (in words),[4]; based on tumor growth delay,no activity
"O=C(NCCOP(=O)(O)O)c1cc([N+](=O)[O-])cc([N+](=O)[O-])c1N(CCBr)CCBr [SN 28343, 2-[Bis(2-bromoethyl)amino]-N-(2-hydroxyethyl)-3,5-dinitrobenzamide phosphate ester]",cell kill versus controls in excision assay (in words),[5],moderate and significant cell killing
same,Log Cell Kill versus controls (Mean ± SEM),[5],0.821
"CS(=O)(=O)OCCN(CCBr)c1ccc([N+](=O)[O-])c(C(=O)NCCCOP(=O)(O)O)c1[N+](=O)[O-] [SN 29303, 2-[2-bromoethyl)-2,4-dinitro-3-({[3-(phosphonooxy)propyl]amino}carbonyl) anilino]ethyl methanesulfonate]",cell kill versus controls in excision assay (in words),[5],moderate and significant cell killing
same,Log Cell Kill versus controls (Mean ± SEM),[5],0.770
